Data set [1] concerns HIV-IIIb. The data set can be described thus: Test A: Antiviral Assay in MT4 Cells. It is filed as cell-based, HIV-1. The settings on record: Human immunodeficiency virus 1, MT4, 120 h, inhibition of virus-induced cell killing, MT-4 cells, HIV-IIIb, 5 days, values normalized to 100%; for inhibition at 0.01 µM: from dose response curve at 0.01 μM (10 nM), read-out: % inhibition at 0.01 μM; for inhibition at 0.2 µM: from dose response curve at 0.20 μM (200 nM), read-out: % inhibition at 0.20 μM. On the procedure: (§1) MT-4 cells were next mixed with HIV-IIIb at a multiplicity of infection (m.o.i.) of 0.003 for 1 hour, after which time 35 μL of virus/cell mixture (2000 cells) was immediately added to each well containing 40 μL of diluted compound. The plates were then incubated at 37° C. for 5 days. After 5 days of incubation, 25 μl of 2× concentrated CellTiter-Glo Reagent (catalog #G7571, Promega Biosciences, Inc., Madison, Wis.) was added to each well containing MT-4 cells. Cell lysis was carried out by incubating at room temperature for 10 min and then chemiluminescence was read.

Data set [2] in a line: Test B: Cytotoxicity Assay (same protocol as Test A, uninfected cells). The data set is classed as cell-based. The settings on record: human, uninfected MT-4 cells, CellTiter-Glo. How it is done:
as §1, with “read. […] Compound cytotoxicity and the corresponding CC50 values was determined using the same protocol as described in the antiviral assay (Test A) except that uninfected cells were used.” for “read.”

Experimental findings from patent publication US11753399B2, “Therapeutic compounds” (Gilead Sciences, Inc., priority 2018, dated 2023) are described below.

Broadly, the inhibition is the drop in the measured response relative to a control, in per cent. For orientation: CC50 means the concentration at which the toxic effect on the cells reaches its halfway point. Low readings indicate greater toxicity to the cells, high ones lower toxicity to the cells.

`CC(C)(C#Cc1ccc(-c2ccc(Cl)c3c(NS(C)(=O)=O)nn(CC(F)F)c23)c([C@H](Cc2cc(F)cc(F)c2)NC(=O)Cn2nc(C(F)F)c3c2C(F)(F)CCC3(F)F)n1)S(=O)(=O)C1CC1` [Example 42]: in data set [1], the inhibition at 0.01 µM came to 89% and the inhibition at 0.2 µM worked out at 89%. In data set [2], the CC50 at 5 days is more than 57.1 µM.

Take `Cn1nc(NS(C)(=O)=O)c2c(Cl)ccc(-c3ccc(C#CC(C)(C)S(=O)(=O)C4CC4)nc3[C@H](Cc3cc(F)cc(F)c3)NC(=O)Cn3nc(C(F)F)cc3C(F)F)c21` [Example 43]: in data set [1], the inhibition at 0.01 µM amounted to 87% and the inhibition at 0.2 µM was 87%. In addition, the 50% cytotoxic concentration (CC50) at 5 days in data set [2] was more than 57.1 µM.

As for `Cn1nc(NS(C)(=O)=O)c2c(Cl)ccc(-c3ccc(C#CC(C)(C)S(=O)(=O)C4CC4)nc3[C@H](Cc3cc(F)cc(F)c3)NC(=O)Cn3nc(C(F)(F)F)cc3C3CC3)c21` [Example 44], in data set [1], the inhibition at 0.01 µM was found to be 87% and the inhibition at 0.2 µM came to 92%. Besides, the 50% cytotoxic concentration (CC50) at 5 days in data set [2] is more than 54.8 µM.

Regarding `Cn1nc(NS(C)(=O)=O)c2c(Cl)ccc(-c3ccc(C#CC(C)(C)S(=O)(=O)C4CC4)nc3[C@H](Cc3cc(F)cc(F)c3)NC(=O)Cn3cnnn3)c21` [Example 45], in data set [1], the inhibition at 0.01 µM was determined as 96% and the inhibition at 0.2 µM came to 97%. This compound had a half-maximal cytotoxic concentration (CC50) at 5 days in data set [2] of 20.1 µM.

On to `Cn1nc(NS(C)(=O)=O)c2c(Cl)ccc(-c3ccc(C#CC(C)(C)S(=O)(=O)C4CC4)nc3[C@H](Cc3cc(F)cc(F)c3)NC(=O)Cc3nnn[nH]3)c21` [Example 46], for which, in data set [1], the inhibition at 0.01 µM came to 0% and the inhibition at 0.2 µM stood at 10%. The cytotoxic concentration (CC50) at 5 days in data set [2] is more than 54.6 µM.

As for `Cn1nc(NS(C)(=O)=O)c2c(Cl)ccc(-c3ccc(C#CC(C)(C)S(=O)(=O)C4CC4)nc3[C@H](Cc3cc(F)cc(F)c3)NC(=O)Cn3cnnc3)c21` [Example 47], in data set [1], the inhibition at 0.01 µM amounted to 0% and the inhibition at 0.2 µM came to 0%. For the same compound, the CC50 at 5 days in data set [2] was more than 57.1 µM.

With `Cn1nc(NS(C)(=O)=O)c2c(Cl)ccc(-c3ccc(C#CC(C)(C)S(=O)(=O)C4CC4)nc3[C@H](Cc3cc(F)cc(F)c3)NC(=O)Cn3ccnn3)c21` [Example 48], in data set [1], the inhibition at 0.01 µM is 0% and the inhibition at 0.2 µM turned out to be 0%. The compound also showed a CC50 at 5 days in data set [2] of more than 57.1 µM.

Turning to `Cn1nc(NS(C)(=O)=O)c2c(Cl)ccc(-c3ccc(C#CC(C)(C)S(=O)(=O)C4CC4)nc3[C@H](Cc3cc(F)cc(F)c3)NC(=O)Cn3ccnc3)c21` [Example 49], in data set [1], the inhibition at 0.01 µM turned out to be 0% and the inhibition at 0.2 µM was determined as 90%. For the same compound, in data set [2], the CC50 at 5 days is more than 57.1 µM.

As to `Cn1nc(NS(C)(=O)=O)c2c(Cl)ccc(-c3ccc(C#CC(C)(C)S(=O)(=O)C4CC4)nc3[C@H](Cc3cc(F)cc(F)c3)NC(=O)Cn3cccn3)c21` [Example 50], in data set [1], the inhibition at 0.01 µM worked out at 0% and the inhibition at 0.2 µM was determined as 36%. Moreover, the CC50 at 5 days in data set [2] was more than 53.6 µM.

For `CCS(=O)(=O)Nc1nn(CC(F)F)c2c(-c3ccc(C#CC(C)(C)S(=O)(=O)C4CC4)nc3[C@H](Cc3cc(F)cc(F)c3)NC(=O)Cn3nc(C(F)F)c4c3C(F)(F)[C@@H]3C[C@H]43)cccc12` [Example 51], in data set [1], the inhibition at 0.01 µM was found to be 67% and the inhibition at 0.2 µM stood at 91%. Half-maximal cytotoxicity in data set [2] (CC50 at 5 days) was put at 51.2 µM.

Turning to `CC(C)(C#Cc1ccc(-c2cccc3c(NS(=O)(=O)C4CC4)nn(CC(F)F)c23)c([C@H](Cc2cc(F)cc(F)c2)NC(=O)Cn2nc(C(F)F)c3c2C(F)(F)[C@@H]2C[C@H]32)n1)S(=O)(=O)C1CC1` [Example 52], in data set [1], the inhibition at 0.01 µM amounted to 93% and the inhibition at 0.2 µM came to 93%. In addition, the half-maximal cytotoxic concentration (CC50) at 5 days in data set [2] is more than 57.1 µM.

For the compound `Cn1nc(NS(C)(=O)=O)c2c(Cl)ccc(-c3ccc(C#CC(C)(C)S(=O)(=O)C4CC4)nc3[C@H](Cc3cc(F)cc(F)c3)NC(=O)Cc3nc4ccccc4[nH]3)c21` [Example 54], in data set [1], the inhibition at 0.01 µM is 18% and the inhibition at 0.2 µM was found to be 99%. Moreover, half-maximal cytotoxicity in data set [2] (CC50 at 5 days) was put at 29.8 µM.

`Cn1nc(NS(C)(=O)=O)c2c(Cl)ccc(-c3ccc(C#CC(C)(C)S(=O)(=O)C4CC4)nc3[C@H](Cc3cc(F)cc(F)c3)NC(=O)c3ccn[nH]3)c21` [Example 55]: in data set [1], the inhibition at 0.01 µM is 86% and the inhibition at 0.2 µM is 96%. In data set [2], the CC50 at 5 days was 22.2 µM.

Turning to `Cn1nc(NS(C)(=O)=O)c2c(Cl)ccc(-c3ccc(C#CC(C)(C)S(=O)(=O)C4CC4)nc3[C@H](Cc3cc(F)cc(F)c3)NC(=O)Cn3nc(C(F)F)c(Cl)c3C(F)F)c21` [Example 56], in data set [1], the inhibition at 0.01 µM turned out to be 0% and the inhibition at 0.2 µM amounted to 91%. The compound further showed a cytotoxic concentration (CC50) at 5 days in data set [2] of 23.5 µM.

`CC(C)(C#Cc1ccc(-c2ccc(F)c3c(NS(=O)(=O)C4CC4)nn(CC(F)F)c23)c([C@H](Cc2cc(F)cc(F)c2)NC(=O)Cn2nc(C(F)(F)F)c3c2C(F)(F)[C@@H]2C[C@H]32)n1)S(=O)(=O)C1CC1` [Example 57]: in data set [1], the inhibition at 0.01 µM came to 59% and the inhibition at 0.2 µM is 91%. Further, in data set [2], the 50% cytotoxic concentration (CC50) at 5 days is more than 57.1 µM.

For `Cn1nc(NS(C)(=O)=O)c2c(Cl)ccc(-c3ccc(C#CC(C)(C)S(=O)(=O)C4CC4)nc3[C@H](Cc3cc(F)cc(F)c3)NC(=O)Cn3nc(C(F)F)c(Br)c3C(F)F)c21` [Example 58], in data set [1], the inhibition at 0.01 µM is 95% and the inhibition at 0.2 µM was found to be 95%. Also, the CC50 at 5 days in data set [2] is more than 57.1 µM.

Take `Cn1nc(NS(C)(=O)=O)c2c(Cl)ccc(-c3ccc(C#CC(C)(C)S(=O)(=O)C4CC4)nc3[C@H](Cc3cc(F)cc(F)c3)NC(=O)Cn3nc(C(F)F)c(C4CC4)c3C(F)F)c21` [Example 59]: in data set [1], the inhibition at 0.01 µM stood at 81% and the inhibition at 0.2 µM is 93%. In data set [2], this compound had a CC50 at 5 days of more than 57.1 µM.

For the compound `Cn1nc(NS(C)(=O)=O)c2c(Cl)ccc(-c3ccc(C#CC(C)(C)S(=O)(=O)C4CC4)nc3[C@H](Cc3cc(F)cc(F)c3)NC(=O)CCn3cccn3)c21` [Example 60], in data set [1], the inhibition at 0.01 µM turned out to be 100% and the inhibition at 0.2 µM was 100%. The compound also came in with a CC50 at 5 days in data set [2] of 19.2 µM.

Regarding `Cn1nc(NS(C)(=O)=O)c2c(Cl)ccc(-c3ccc(C#CC(C)(C)S(=O)(=O)C4CC4)nc3[C@H](Cc3cc(F)cc(F)c3)NC(=O)Cn3ncc4ccccc43)c21` [Example 61], in data set [1], the inhibition at 0.01 µM turned out to be 3% and the inhibition at 0.2 µM is 98%. The same compound registered a CC50 at 5 days in data set [2] of 28.4 µM.

For `Cn1nc(NS(C)(=O)=O)c2c(Cl)ccc(-c3ccc(C#CC(C)(C)S(=O)(=O)C4CC4)nc3[C@H](Cc3cc(F)cc(F)c3)NC(=O)Cn3cnc4ccccc43)c21` [Example 62], in data set [1], the inhibition at 0.01 µM was found to be 56% and the inhibition at 0.2 µM came to 93%. This compound had a 50% cytotoxic concentration (CC50) at 5 days in data set [2] of 30.7 µM.

As for `Cn1nc(NS(C)(=O)=O)c2c(Cl)ccc(-c3ccc(C#CC(C)(C)S(=O)(=O)C4CC4)nc3[C@H](Cc3cc(F)cc(F)c3)NC(=O)Cn3nnc4ccccc43)c21` [Example 63], in data set [1], the inhibition at 0.01 µM is 1% and the inhibition at 0.2 µM amounted to 100%. Further, in data set [2], the CC50 at 5 days was found to be 21.8 µM.

In the case of `Cn1nc(NS(C)(=O)=O)c2c(Cl)ccc(-c3ccc(C#CC(C)(C)S(=O)(=O)C4CC4)nc3[C@H](Cc3cc(F)cc(F)c3)NC(=O)Cn3cc(C(F)(F)F)nc3C3CC3)c21` [Example 64], in data set [1], the inhibition at 0.01 µM was found to be 45% and the inhibition at 0.2 µM is 94%. The compound also returned a CC50 at 5 days in data set [2] of more than 50 µM.
